Residues, ends and D or L forms follow the SMILES beside them.
Molecular target: IL-17RA/IL17RC dimerization induced by IL-17A (Homo sapiens, UniProt Q16552)
Assay: IL-17RA/IL17RC dimerization assay in response to IL-17A (PathHunter Cytokine Receptor Assay)
Type: cell-based
Details: IL-17A at EC80; read-out: IC50 in IL-17RA/IL7RC dimerization assay
How it was run: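 Receptor dimerization was read as chemiluminescence from complemented β-galactosidase after IL-17A at EC80 concentration for 6–16 h at 37 °C. Peptides were added 60 min before agonist, at 37 °C or room temperature, with 1% vehicle. Percent inhibition used the EC80-stimulated and vehicle wells as references.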

IL-17RA/IL17RC dimerization induced by IL-17A, sequence (Q16552 24-155): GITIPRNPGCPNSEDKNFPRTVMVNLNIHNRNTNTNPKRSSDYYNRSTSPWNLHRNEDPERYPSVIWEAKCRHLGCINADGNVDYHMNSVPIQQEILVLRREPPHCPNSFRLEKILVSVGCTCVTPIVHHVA

| SMILES | IC50 [µM] |
| --- | --- |
| CC[C@H](C)[C@H](NC(C)=O)C(=O)N[C@@H](Cc1c[nH]cn1)C(=O)N[C@H](C(=O)N[C@H](C(=O)N[C@H](C(=O)NCC(=O)N[C@@H](C)C(=O)N[C@@H](CC(=O)O)C(=O)N[C@@H](CC(C)C)C(=O)N[C@@H](Cc1c[nH]c2ccccc12)C(=O)N[C@@H](CC(=O)O)C(=O)N[C@@H](Cc1c[nH]c2ccccc12)C(=O)N[C@H](C(=O)N[C@@H](CC(N)=O)C(=O)N[C@@H](CCCCN)C(N)=O)[C@@H](C)CC)[C@@H](C)CC)[C@@H](C)O)C(C)C [SEQ ID NO: 187] (Ac-IHVTIGADLWDWINK-NH2) | < 10 |
| CC[C@H](C)[C@H](NC(C)=O)C(=O)N[C@@H](Cc1c[nH]cn1)C(=O)N[C@H](C(=O)N[C@H](C(=O)N[C@H](C(=O)N[C@@H](CC(C)C)C(=O)N[C@@H](C)C(=O)N[C@@H](CC(=O)O)C(=O)N[C@@H](CC(C)C)C(=O)N[C@@H](Cc1c[nH]c2ccccc12)C(=O)N[C@@H](CC(=O)O)C(=O)N[C@@H](Cc1c[nH]c2ccccc12)C(=O)N[C@H](C(=O)N[C@@H](CC(N)=O)C(=O)N[C@@H](CCCCN)C(N)=O)[C@@H](C)CC)[C@@H](C)CC)[C@@H](C)O)C(C)C [SEQ ID NO: 188] (Ac-IHVTILADLWDWINK-NH2) | < 10 |
| CC[C@H](C)[C@H](NC(C)=O)C(=O)N[C@@H](Cc1c[nH]cn1)C(=O)N[C@H](C(=O)N[C@H](C(=O)N[C@H](C(=O)N[C@H](C(=O)N[C@@H](C)C(=O)N[C@@H](CC(=O)O)C(=O)N[C@@H](CC(C)C)C(=O)N[C@@H](Cc1c[nH]c2ccccc12)C(=O)N[C@@H](CC(=O)O)C(=O)N[C@@H](Cc1c[nH]c2ccccc12)C(=O)N[C@H](C(=O)N[C@@H](CC(N)=O)C(=O)N[C@@H](CCCCN)C(N)=O)[C@@H](C)CC)C(C)C)[C@@H](C)CC)[C@@H](C)O)C(C)C [SEQ ID NO: 189] (Ac-IHVTIVADLWDWINK-NH2) | < 10 |
| CC[C@H](C)[C@H](NC(C)=O)C(=O)N[C@@H](Cc1c[nH]cn1)C(=O)N[C@H](C(=O)N[C@H](C(=O)N[C@H](C(=O)N[C@H](C(=O)N[C@@H](C)C(=O)N[C@@H](CC(=O)O)C(=O)N[C@@H](CC(C)C)C(=O)N[C@@H](Cc1c[nH]c2ccccc12)C(=O)N[C@@H](CC(=O)O)C(=O)N[C@@H](Cc1c[nH]c2ccccc12)C(=O)N[C@H](C(=O)N[C@@H](CC(N)=O)C(=O)N[C@@H](CCCCN)C(N)=O)[C@@H](C)CC)[C@@H](C)CC)[C@@H](C)CC)[C@@H](C)O)C(C)C [SEQ ID NO: 190] (Ac-IHVTIIADLWDWINK-NH2) | < 10 |
| CC[C@H](C)[C@H](NC(C)=O)C(=O)N[C@@H](Cc1c[nH]cn1)C(=O)N[C@H](C(=O)N[C@H](C(=O)N[C@H](C(=O)N[C@@H](CC(N)=O)C(=O)N[C@@H](C)C(=O)N[C@@H](CC(=O)O)C(=O)N[C@@H](CC(C)C)C(=O)N[C@@H](Cc1c[nH]c2ccccc12)C(=O)N[C@@H](CC(=O)O)C(=O)N[C@@H](Cc1c[nH]c2ccccc12)C(=O)N[C@H](C(=O)N[C@@H](CC(N)=O)C(=O)N[C@@H](CCCCN)C(N)=O)[C@@H](C)CC)[C@@H](C)CC)[C@@H](C)O)C(C)C [SEQ ID NO: 191] (Ac-IHVTINADLWDWINK-NH2) | < 10 |
| CC[C@H](C)[C@H](NC(C)=O)C(=O)N[C@@H](Cc1c[nH]cn1)C(=O)N[C@H](C(=O)N[C@H](C(=O)N[C@H](C(=O)N1CCC[C@H]1C(=O)NCC(=O)N[C@@H](CC(=O)O)C(=O)N[C@@H](CC(C)C)C(=O)N[C@@H](Cc1c[nH]c2ccccc12)C(=O)N[C@@H](CC(=O)O)C(=O)N[C@@H](Cc1c[nH]c2ccccc12)C(=O)N[C@H](C(=O)N[C@@H](CC(N)=O)C(=O)N[C@@H](CCCCN)C(N)=O)[C@@H](C)CC)[C@@H](C)CC)[C@@H](C)O)C(C)C [SEQ ID NO: 192] (Ac-IHVTIPGDLWDWINK-NH2) | < 10 |
| CC[C@H](C)[C@H](NC(C)=O)C(=O)N[C@@H](Cc1c[nH]cn1)C(=O)N[C@H](C(=O)N[C@H](C(=O)N[C@H](C(=O)N1CCC[C@H]1C(=O)N[C@@H](CC(C)C)C(=O)N[C@@H](CC(=O)O)C(=O)N[C@@H](CC(C)C)C(=O)N[C@@H](Cc1c[nH]c2ccccc12)C(=O)N[C@@H](CC(=O)O)C(=O)N[C@@H](Cc1c[nH]c2ccccc12)C(=O)N[C@H](C(=O)N[C@@H](CC(N)=O)C(=O)N[C@@H](CCCCN)C(N)=O)[C@@H](C)CC)[C@@H](C)CC)[C@@H](C)O)C(C)C [SEQ ID NO: 193] (Ac-IHVTIPLDLWDWINK-NH2) | < 10 |

Next, values leading:

| IC50 [µM] | SMILES |
| --- | --- |
| < 10 | CC[C@H](C)[C@H](NC(C)=O)C(=O)N[C@@H](Cc1c[nH]cn1)C(=O)N[C@H](C(=O)N[C@@H](CCC(N)=O)C(=O)N[C@H](C(=O)N1CCC[C@H]1C(=O)N[C@@H](C)C(=O)N[C@@H](CC(=O)O)C(=O)N[C@@H](CC(C)C)C(=O)N[C@@H](Cc1c[nH]c2ccccc12)C(=O)N[C@@H](CC(=O)O)C(=O)N[C@@H](Cc1c[nH]c2ccccc12)C(=O)N[C@H](C(=O)N[C@@H](CC(N)=O)C(=O)N[C@@H](CCCCN)C(N)=O)[C@@H](C)CC)[C@@H](C)CC)C(C)C [SEQ ID NO: 178] (Ac-IHVQIPADLWDWINK-NH2) |
| < 10 | CC[C@H](C)[C@H](NC(C)=O)C(=O)N[C@@H](Cc1c[nH]cn1)C(=O)N[C@H](C(=O)N[C@H](C(=O)N[C@@H](C)C(=O)N1CCC[C@H]1C(=O)N[C@@H](C)C(=O)N[C@@H](CC(=O)O)C(=O)N[C@@H](CC(C)C)C(=O)N[C@@H](Cc1c[nH]c2ccccc12)C(=O)N[C@@H](CC(=O)O)C(=O)N[C@@H](Cc1c[nH]c2ccccc12)C(=O)N[C@H](C(=O)N[C@@H](CC(N)=O)C(=O)N[C@@H](CCCCN)C(N)=O)[C@@H](C)CC)[C@@H](C)O)C(C)C [SEQ ID NO: 179] (Ac-IHVTAPADLWDWINK-NH2) |
| < 10 | CC[C@H](C)[C@H](NC(C)=O)C(=O)N[C@@H](Cc1c[nH]cn1)C(=O)N[C@H](C(=O)N[C@H](C(=O)NCC(=O)N1CCC[C@H]1C(=O)N[C@@H](C)C(=O)N[C@@H](CC(=O)O)C(=O)N[C@@H](CC(C)C)C(=O)N[C@@H](Cc1c[nH]c2ccccc12)C(=O)N[C@@H](CC(=O)O)C(=O)N[C@@H](Cc1c[nH]c2ccccc12)C(=O)N[C@H](C(=O)N[C@@H](CC(N)=O)C(=O)N[C@@H](CCCCN)C(N)=O)[C@@H](C)CC)[C@@H](C)O)C(C)C [SEQ ID NO: 180] (Ac-IHVTGPADLWDWINK-NH2) |
| < 10 | CC[C@H](C)[C@H](NC(C)=O)C(=O)N[C@@H](Cc1c[nH]cn1)C(=O)N[C@H](C(=O)N[C@H](C(=O)N[C@@H](CC(C)C)C(=O)N1CCC[C@H]1C(=O)N[C@@H](C)C(=O)N[C@@H](CC(=O)O)C(=O)N[C@@H](CC(C)C)C(=O)N[C@@H](Cc1c[nH]c2ccccc12)C(=O)N[C@@H](CC(=O)O)C(=O)N[C@@H](Cc1c[nH]c2ccccc12)C(=O)N[C@H](C(=O)N[C@@H](CC(N)=O)C(=O)N[C@@H](CCCCN)C(N)=O)[C@@H](C)CC)[C@@H](C)O)C(C)C [SEQ ID NO: 181] (Ac-IHVTLPADLWDWINK-NH2) |
| < 10 | CC[C@H](C)[C@H](NC(C)=O)C(=O)N[C@@H](Cc1c[nH]cn1)C(=O)N[C@H](C(=O)N[C@H](C(=O)N1CCC[C@H]1C(=O)N1CCC[C@H]1C(=O)N[C@@H](C)C(=O)N[C@@H](CC(=O)O)C(=O)N[C@@H](CC(C)C)C(=O)N[C@@H](Cc1c[nH]c2ccccc12)C(=O)N[C@@H](CC(=O)O)C(=O)N[C@@H](Cc1c[nH]c2ccccc12)C(=O)N[C@H](C(=O)N[C@@H](CC(N)=O)C(=O)N[C@@H](CCCCN)C(N)=O)[C@@H](C)CC)[C@@H](C)O)C(C)C [SEQ ID NO: 182] (Ac-IHVTPPADLWDWINK-NH2) |
| < 10 | CC[C@H](C)[C@H](NC(C)=O)C(=O)N[C@@H](Cc1c[nH]cn1)C(=O)N[C@H](C(=O)N[C@H](C(=O)N[C@H](C(=O)N1CCC[C@H]1C(=O)N[C@@H](C)C(=O)N[C@@H](CC(=O)O)C(=O)N[C@@H](CC(C)C)C(=O)N[C@@H](Cc1c[nH]c2ccccc12)C(=O)N[C@@H](CC(=O)O)C(=O)N[C@@H](Cc1c[nH]c2ccccc12)C(=O)N[C@H](C(=O)N[C@@H](CC(N)=O)C(=O)N[C@@H](CCCCN)C(N)=O)[C@@H](C)CC)C(C)C)[C@@H](C)O)C(C)C [SEQ ID NO: 183] (Ac-IHVTVPADLWDWINK-NH2) |
| < 10 | CC[C@H](C)[C@H](NC(C)=O)C(=O)N[C@@H](Cc1c[nH]cn1)C(=O)N[C@H](C(=O)N[C@H](C(=O)N[C@@H](Cc1ccccc1)C(=O)N1CCC[C@H]1C(=O)N[C@@H](C)C(=O)N[C@@H](CC(=O)O)C(=O)N[C@@H](CC(C)C)C(=O)N[C@@H](Cc1c[nH]c2ccccc12)C(=O)N[C@@H](CC(=O)O)C(=O)N[C@@H](Cc1c[nH]c2ccccc12)C(=O)N[C@H](C(=O)N[C@@H](CC(N)=O)C(=O)N[C@@H](CCCCN)C(N)=O)[C@@H](C)CC)[C@@H](C)O)C(C)C [SEQ ID NO: 184] (Ac-IHVTFPADLWDWINK-NH2) |
| < 10 | CC[C@H](C)[C@H](NC(C)=O)C(=O)N[C@@H](Cc1c[nH]cn1)C(=O)N[C@H](C(=O)N[C@H](C(=O)N[C@@H](Cc1ccc(O)cc1)C(=O)N1CCC[C@H]1C(=O)N[C@@H](C)C(=O)N[C@@H](CC(=O)O)C(=O)N[C@@H](CC(C)C)C(=O)N[C@@H](Cc1c[nH]c2ccccc12)C(=O)N[C@@H](CC(=O)O)C(=O)N[C@@H](Cc1c[nH]c2ccccc12)C(=O)N[C@H](C(=O)N[C@@H](CC(N)=O)C(=O)N[C@@H](CCCCN)C(N)=O)[C@@H](C)CC)[C@@H](C)O)C(C)C [SEQ ID NO: 185] (Ac-IHVTYPADLWDWINK-NH2) |
| < 10 | CC[C@H](C)[C@H](NC(C)=O)C(=O)N[C@@H](Cc1c[nH]cn1)C(=O)N[C@H](C(=O)N[C@H](C(=O)N[C@H](C(=O)N[C@@H](C)C(=O)N[C@@H](C)C(=O)N[C@@H](CC(=O)O)C(=O)N[C@@H](CC(C)C)C(=O)N[C@@H](Cc1c[nH]c2ccccc12)C(=O)N[C@@H](CC(=O)O)C(=O)N[C@@H](Cc1c[nH]c2ccccc12)C(=O)N[C@H](C(=O)N[C@@H](CC(N)=O)C(=O)N[C@@H](CCCCN)C(N)=O)[C@@H](C)CC)[C@@H](C)CC)[C@@H](C)O)C(C)C [SEQ ID NO: 186] (Ac-IHVTIAADLWDWINK-NH2) |

— patent US11236129B2, “IL-17A binding peptides and medical uses thereof” (Dompe' Farmaceutici S.P.A., priority 2018, dated 2022)
